Source: publication PMC6405842, “Identification of a novel scaffold for a small molecule GPR139 receptor agonist” (Scientific Reports, 2019)
Positions count from the first letter of the chain named.

Key:
Type in all cases: cell-based
GPR139 W241H^6×48 = biological target: T1, GPR139 W241H^6×48 (Homo sapiens, UniProt Q6DWJ6, W241H); assay: Ca2+ mobilization on GPR139 mutant W241H
T1 construct: myc (N); expressed in transfected cells
T1 sequence (Q6DWJ6 1-353 W241H): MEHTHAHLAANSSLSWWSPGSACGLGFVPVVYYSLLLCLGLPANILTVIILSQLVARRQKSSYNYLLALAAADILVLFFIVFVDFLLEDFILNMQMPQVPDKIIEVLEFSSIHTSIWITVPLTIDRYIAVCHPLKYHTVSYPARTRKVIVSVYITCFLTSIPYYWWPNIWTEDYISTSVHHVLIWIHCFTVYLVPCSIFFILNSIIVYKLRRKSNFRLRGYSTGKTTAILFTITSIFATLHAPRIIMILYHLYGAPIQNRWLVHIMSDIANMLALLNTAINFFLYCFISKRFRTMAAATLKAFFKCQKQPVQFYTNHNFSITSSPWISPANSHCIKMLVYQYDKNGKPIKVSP
Procedure: (§1) Figure 4 Ca^2+ mobilization concentration-response curves of AC4 on GPR139 wild-type (WT) and mutants. Data is shown from a representative experiment (mean ± S.D.) out of three independent experiments performed in duplicate. Data is normalized to the Ca^2+ response of buffer (0%) and 100 μM AC4 (100%) on myc-GPR139(WT). Residue numbering in superscript is according to GPCRdb numbering system.
(§2) The mutational studies were performed as previously described.

GPR139 N271A^7×38 = biological target: T2, GPR139 N271A^7×38 (Homo sapiens, UniProt Q6DWJ6, N271A); assay: Ca2+ mobilization on GPR139 mutant N271A
T2 construct: myc (N); expressed in transfected cells
T2 sequence (Q6DWJ6 1-353 N271A): T1 sequence (Q6DWJ6 1-353 W241H) with H241W, N271A
Procedure: as §1, §2

GPR139 F109L^3×33 = biological target: T3, GPR139 F109L^3×33 (Homo sapiens, UniProt Q6DWJ6, F109L); assay: Ca2+ mobilization on GPR139 mutant F109L; details: highest tested concentration (100 μM), n = 3
T3 construct: myc (N); expressed in transfected cells
T3 sequence (Q6DWJ6 1-353 F109L): T1 sequence (Q6DWJ6 1-353 W241H) with F109L, H241W
Procedure: as §1, §2

GPR139 = biological target: T4, GPR139 (Homo sapiens, UniProt Q6DWJ6); assay: Fluo-4 calcium mobilization assay, agonist mode, concentration-response curves in CHO-GPR139 cells
T4 construct: host or cells: CHO-k1
T4 sequence (Q6DWJ6 1-353): T1 sequence (Q6DWJ6 1-353 W241H) with H241W
Procedure: All compounds were tested on a CHO-k1 cell line stably expressing GPR139 (CHO-GPR139)[11] kindly provided by H. Lundbeck A/S, Denmark. GPR139-specific responses were assessed using a CHO-k1 cell line stably expressing the muscarinic acetylcholine receptor M1 (CHO-M1) (The Missouri S&T cDNA Resource Center, # CEM100TN00). The CHO-GPR139 cells were grown in Dulbecco’s modified Eagle’s medium (DMEM) F12-Kaighn’s (ThermoFisher Scientific # 21127) supplemented with 10% dialyzed fetal bovine serum (United States origin; ThermoFisher Scientific # 26400), 1% GlutaMAX-I (100X) (ThermoFisher Scientific # 35050061), and 100 units/mL penicillin and 100 µg/mL streptomycin (ThermoFisher Scientific # 15140122) and 1 mg/mL geneticin (ThermoFisher Scientific # 11811031). The CHO-M1 cells were grown in Ham’s F12 (ThermoFisher Scientific # 21765) supplemented with 10% fetal bovine serum (South American origin; ThermoFisher Scientific # 10270) + 100 units/mL penicillin and streptomycin and 0.25 mg/mL geneticin.
The Fluo-4 Ca^2+-assay was performed as described previously, with minor modifications. After 1 hour incubation with the Fluo-4 dye, the CHO-GPR139 cells were washed with 100 μL HEPES buffer (Hank’s Balanced Salt Solution (HBBS, ThermoFisher Scientific # 14175053) supplemented with 20 mM HEPES, 1 mM MgCl2, 1 mM CaCl2, pH = 7.4) and the compound library was then added in concentrations between 25–63 μM dissolved in HEPES buffer (supplemented with 2.5 mM probenecid and 1% DMSO) and pre-incubated for 10 min at 37 °C. 33 μL of 3.2 μM 1a were added automatically after baseline measurements. […] This set-up allowed us to identify both antagonists and agonists (Fig. 2).
Each compound, for which a concentration response curve was made, was tested at least three times in duplicate measurements. After the incubation with the Fluo-4 dye and a wash, 100 μL HEPES buffer (supplemented with 2.5 mM probenecid) was added to each well and incubated for 10 minutes at 37 °C before recording. 33 μL of compounds (4× concentrated) were added automatically after baseline measurements.
The Ca^2+ and ERK responses were normalized as indicated and the concentration response curves were fitted by Prism 6 software (GraphPad) using nonlinear regression in a sigmoidal model with variable slope, as has been previously described.

## O=C(O)C1CC=CCC1c1nnc(CSc2ccc(Cl)cc2)o1 (stereo not shown) [AC4]
GPR139 W241H^6×48; mutant W241H, n = 3
  Emax: 37 ± 3%
GPR139 W241H^6×48; printed as lower EC50 than on WT
  fold change of EC50 on W241H versus WT: 12 fold
GPR139 N271A^7×38
  Ca2+ response: no measurable Ca^2+ response
GPR139 F109L^3×33
  Ca2+ response: 17 ± 2 % of WT
GPR139; CHO-GPR139 cells, normalized to buffer (0%) and 8 μM 1a (100%)
  Emax: 116 ± 3%
GPR139; CHO-GPR139 cells, read-out: pEC50 ± S.E.M. (converted)
  EC50: 219 nM
GPR139; Table S1, normalized to compound 1a
  Emax: 115 ± 3%
